According to patent publication US20100292165A1, “Treatment of an intestinal adenoma and/or adenocarcinoma by inhibition of notch pathway activation” (Hubrecht Laboratorium a corporation of the Netherlands, priority 2004, published 2010):
“Also recorded” adds a separate entry of the source.

What was measured:
γ-secretase = experiment: IC50 of γ-secretase inhibitors, assay not stated
Text: DAPT, DBZ or BZ are both effective in inducing the formation of a post-mitotic cell from an adenoma and/or adenocarcinoma cell and these compounds thus have a similar effect in a method according to the invention.

adenomas of APC^min mice = experiment: Oral DAPT treatment of APC^min mice, histology of intestinal adenomas; assay type: in vivo, mouse; conditions: DAPT 100 mg/kg orally once daily
Description: The intestinal tract was dissected as a whole and flushed gently with cold PBS to remove any fecal content followed by a flush with Formalin. The small intestine was rolled up into a compact circle and fixed in Formalin at room temperature for 16 hours. The tissues were sectioned (2 to 6 μm). Following dewaxing and hydration, sections were pretreated with peroxidase blocking buffer (120 mM Na2HPO4, 43 mM citric acid, 30 mM NaN3, 0.2% H2O2; pH 5.8) for 15 minutes at room temperature. Antigen retrieval was performed by boiling samples in Na-citrate buffer (10 mM, pH 6.0). After 20 minutes, the boiling pan was allowed to slowly cool down to room temperature. Incubation of antibodies was performed in BSA in PBS overnight at 4° C. and at room temperature for one hour for Lysozyme, Ki67. In all cases, the Envision^+ kit (DAKO) was used as a secondary reagent. The incubation time was 30 minutes. Stainings were developed using DAB. Slides were then counterstained with hematoxylin and mounted. The probes used for in situ hybridization are as described (Schroder et al. 2002). Following dewaxing and hydration, tissues were incubated for five minutes in Alcian Blue (1% in 0.5% acetic acid). Subsequently washed in water, one minute incubated in Neutral Red. Quickly dehydrated, washed in Xylene and mounted with Pertex. The eight-week-old APC^min mice were treated with two different, orally deliverable γ-secretase inhibitors (DAPT: 100 mg/kg in corn oil) for 2.5, 6.5 or 15 days, after which their intestines were isolated and examined histologically. We then asked whether Notch pathway activity was essential for the maintenance of the undifferentiated, proliferative phenotype of adenoma cells. We elected to inhibit the Notch pathway pharmacologically through the use of the γ-secretase inhibitor DAPT. We then initiated treatment of fifteen-week-old APC^min mice that at this age carry 30 to 60 macroscopically detectable adenomas or polyps in the small intestine and one to three adenomas in the colon. The mice were treated with DAPT for up to 15 days, after which their intestines were examined histologically. Based on a pilot experiment and published treatment regimens, the APC^min mice were orally dosed once daily with DAPT at 100 mg/kg in maize oil.

With CC(NC(=O)Cc1cc(F)cc(F)c1)C(=O)NC(C(=O)OC(C)(C)C)c1ccccc1 [DAPT, N—[N-(3,5-difluorophenylacetyl)-L-alanyl]-S-phenylglycine t-butyl ester] the IC50 (γ-secretase) was 10 nM, the effects in adenomas (adenomas of APC^min mice; day 2.5 or day 6.5 of treatment) was “No consistent effects” and the “Alcian Blue-positive goblet cells in adenomas” value (adenomas of APC^min mice; day 15) was “increase in goblet cells; also recorded: Large foci of Alcian Blue-positive goblet cells had appeared”. For the same compound, the “proliferation in adjacent, normal crypts” value (adenomas of APC^min mice; day 15) was “unaffected” and the “numbers of proliferating, Ki67-positive cells in adenomas” value (adenomas of APC^min mice; day 15, colon and small intestinal adenomas) was “strongly diminished; also recorded: dramatically decreased; also recorded: halted”.
